Assay results from US20170066717A1, “NEW PHENYLAZETIDINECARBOXYLATE OR -CARBOXAMIDE COMPOUNDS” (INVENTIVA, priority 2014, published 2017).

Columns and labels:
NURR-1/RXRγ = target: T1, NURR-1/RXRγ (Homo sapiens, UniProt P48443); experiment: Transactivation test, NURR-1-Gal4/RXRγ, luciferase reporter in Cos-7 cells; format: cell-based; settings: for Emax: COS-7, induction level relative to reference XCT0135908 at 2×10^−5 M (=100%), read-out: hNurr1_RXRgFL Emax (%); for EC50: Cos-7 cells, NURR-1-Gal4/RXRγ, luciferase reporter, read-out: hNurr1_RXRgFL EC50
T1 construct: expressed in transfected cells; host or cells: Cos-7 cells

[1] = test system: mice treated with 1-methyl-4-phenyl-1,2,3,6-tetrahydropyridine (MPTP); experiment: Functional activity in a model of mice treated with MPTP (striatal dopamine, TH mRNA in substantia nigra); format: in vivo; settings: for action of MPTP (decrease in dopamine level in the striatum and in TH expression level in the substantia nigra): C57BL6/J mice, compound orally twice a day for 11 days, MPTP 20 mg/kg ip once a day for 5 days, FIGS. 1 and 2
Description: 3. Study of the Functional Activity in a Mouse Model
A third series of […] tests was carried out with the compounds according to the invention, for the purpose of verifying that the molecules indeed have the expected neuroprotective effect.
The compounds of examples 10 and 118 were tested on a model of mice treated with 1-methyl-4-phenyl-1,2,3,6-tetrahydropyridine (MPTP) in order to confirm their potential activity. MPTP is a neurotoxin which causes the permanent symptoms of Parkinson's disease by destroying the dopaminergic neurons in the substantia nigra. The following protocol: was used.
Male C57BL6/J mice, 10-12 weeks old at the beginning of the studies, were divided up into groups of 12 animals. The compounds wee administered orally, twice a day, for 11 days in total. The administration began 3 days before the treatment with the MPTP toxin at 20 mg/kg. The MPTP was administered once a day by intraperitoneal injection, for 5 days. The admistration of the compounds was continued during the 5 days of MPTP treatment and then for a further 3 days after the MPTP treatment. One group of mice received, orally, the carrier alone (solution of methylcellulose at 1%, 0.1% poloxamer). The annuals were eythanized after rhe final gavage and the striatum and the substantia nigra were removed. The dopamine was extracted from the striatum and the amount of dopamine (DA), expressed in ng per g of striatum (mean±SEM), was measured by high-performance liquid chromatography (HPLC) with electrochemical detection. The messenger RNAs were isolated from the substantia nigra, and the expression level of the mRNAs encoding tyrosine hydroxylase (TH) was measured by quantitative PCR.
The results obtained were reported in appended FIGS. 1 and 2.

T1 sequence (P48443 whole entry, the tested form may be a part): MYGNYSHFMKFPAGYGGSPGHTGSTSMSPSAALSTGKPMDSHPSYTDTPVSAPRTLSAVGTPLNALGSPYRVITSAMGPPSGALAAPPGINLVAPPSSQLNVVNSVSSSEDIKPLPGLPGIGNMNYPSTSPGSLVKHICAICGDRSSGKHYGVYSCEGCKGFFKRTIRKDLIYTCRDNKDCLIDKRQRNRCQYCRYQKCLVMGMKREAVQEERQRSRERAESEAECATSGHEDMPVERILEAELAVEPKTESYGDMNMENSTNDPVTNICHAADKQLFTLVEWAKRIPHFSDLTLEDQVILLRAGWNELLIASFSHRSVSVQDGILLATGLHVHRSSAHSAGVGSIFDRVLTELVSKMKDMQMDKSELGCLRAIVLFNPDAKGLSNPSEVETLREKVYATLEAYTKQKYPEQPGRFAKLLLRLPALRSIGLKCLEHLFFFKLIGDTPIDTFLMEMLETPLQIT
T1 sequence (P43354 whole entry partner, the tested form may be a part): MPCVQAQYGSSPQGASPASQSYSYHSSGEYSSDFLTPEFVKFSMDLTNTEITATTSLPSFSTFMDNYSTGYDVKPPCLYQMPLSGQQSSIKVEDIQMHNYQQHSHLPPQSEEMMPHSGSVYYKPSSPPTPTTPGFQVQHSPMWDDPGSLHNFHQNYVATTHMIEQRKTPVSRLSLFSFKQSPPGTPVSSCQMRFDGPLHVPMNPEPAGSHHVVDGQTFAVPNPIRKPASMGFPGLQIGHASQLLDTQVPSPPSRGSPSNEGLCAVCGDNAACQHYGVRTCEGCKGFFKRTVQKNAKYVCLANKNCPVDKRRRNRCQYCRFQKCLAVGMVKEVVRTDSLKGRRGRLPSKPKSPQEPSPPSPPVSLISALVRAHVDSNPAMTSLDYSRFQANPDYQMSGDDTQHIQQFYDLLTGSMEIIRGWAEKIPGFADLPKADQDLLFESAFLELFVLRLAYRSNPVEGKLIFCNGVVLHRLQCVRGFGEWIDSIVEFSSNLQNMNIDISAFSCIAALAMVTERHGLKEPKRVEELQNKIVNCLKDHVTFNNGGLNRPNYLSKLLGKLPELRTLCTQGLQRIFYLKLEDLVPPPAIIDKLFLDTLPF
T1 sequence (P04386 1-147 partner limits assumed): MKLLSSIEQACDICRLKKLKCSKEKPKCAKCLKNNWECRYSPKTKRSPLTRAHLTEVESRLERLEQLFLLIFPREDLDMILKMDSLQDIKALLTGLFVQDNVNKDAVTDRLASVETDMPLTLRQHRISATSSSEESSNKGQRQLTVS

Row | Compound | Emax (NURR-1/RXRγ) [%] | EC50 (NURR-1/RXRγ) [nM] | action of MPTP (decrease in dopamine level in the striatum and in TH expression level in the substantia nigra) [1] | tyrosine hydroxylase (TH) expression level (mRNA, substantia nigra, quantitative PCR) ([1]; orally twice a day for 11 days, MPTP-treated mice)
1 | CC1(C)CCC(C)(C)c2cc(-c3cccc(N4CC(C(=O)O)C4)c3)ccc21 [Example 10, 1-[5-(1,1,4,4-tetrametyltetralin-6-yl)phenyl]azetidine-3-carboxylic acid] | 85 | 24 | decrease the action of MPTP in a dose-dependent manner | –
2 | CC(C)CC1CN(c2cccc(N3CC(C(=O)O)C3)c2)c2ccc(C(F)(F)F)cc2O1 (stereo not shown) [Example 118, 1-[3-[2-isobutyl-7-(trilfuoromethyl)-2,3-dihydro-1,4-benzoxazin-4-yl]phenyl]azetidine-3-carboxylic acid] | 80 | 47 | decrease the action of MPTP in a dose-dependent manner | capable of re-establishing the tyrosine hydroxylase expression level in the brain
